# Experimental data taken from patent US20080173808A1, “PROCESS AND DEVICE FOR RESPONSE NORMALIZED LIQUID CHROMATOGRAPHY NANOSPRAY IONIZATION MASS SPECTROMETRY (RNLC-NSI-MS)” (Schering Corporation, priority 2007, published 2008).
# Assay: Nanoflow ESI (NanoMate-QTOF), RNLC-NSI-MS of drug and metabolites
# Conditions: Vicriviroc and its metabolites, relative LC-MS response, M35 = 100
# Protocol: For experiments described herein, high performance liquid chromatography (HPLC) separations of analytes were performed at room temperature using the first HPLC system referred to in FIG. 1 as “analytical HPLC”. […] The analytical HPLC column effluent was split (mixing tee 1 or T-1 in FIG. 1) so that 15-25% of the flow was directed to a second mixing tee (T-2 in FIG. 1) connected to the NSI source and 75-85% diverted to an auxiliary detector (e.g. a radioactivity detector (10-11) or a charged aerosol detector (12-13)). Separation of metabolites was achieved using the analytical HPLC system and programmed linear changes in mobile phase composition as shown in Table 1.
# A second HPLC pump, referred to in FIG. 1 as the “Response Normalizing HPLC”, was used to deliver an exactly inverse gradient. Inverse gradient was achieved by switching the aqueous mobile phase to pump B and the organic mobile phase to pump A and using the same gradient program as the one used in the analytical HPLC system. The flow rate of the Response Normalizing HPLC system was maintained between 0.1 and 0.2 mL/min. […] The “Response Normalizing Flow” was introduced into the NSI source via a second mixing tee (T-2). HPLC flows from the analytical HPLC and from the “Response Normalizing HPLC” were combined in the second mixing tee (T-2). The combined flow was delivered to the NSI (NanoMate, API, or any other ion sources) via a union (referred in FIG. 1 as “bulkhead”). For NSI experiments, the combined flow is further split using a mixing tee. The split ratio within the NSI source was manipulated by adjusting the various diameters and lengths of fused silica capillary tubing used to deliver the flow to MS and the fraction collector/waste. Approximately 1-5% of the combined flow was delivered to the NSI source for MS analysis.
structure (smiles),measurement,setting,value
COC[C@@H](c1ccc(C(F)(F)F)cc1)N1CCN(C2(C)CCN(C(=O)c3c(C)ncnc3C)CC2)C[C@@H]1C [Vicriviroc],Nanoflow ESI (NanoMate-QTOF) 0.15 mL/min Normalizing HPLC flow,0.15 mL/min normalizing flow,23.0
same,Nanoflow ESI (NanoMate-QTOF) 0.2 mL/min Normalizing HPLC flow,0.2 mL/min normalizing flow,14.3
same,Nanoflow ESI (NanoMate-QTOF) Without Normalizing HPLC flow,no normalizing flow,50.0
